# Test results: PubChem BioAssay (NCI)
#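 Following 48 hours of exposure in 96-well plates, responses at five concentrations were used to interpolate endpoints linearly. The concentration for 50% growth inhibition is given as GI50. TGI: concentration producing complete growth inhibition.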
# Experiments:
# Test in all cases: DTP human tumour cell line panel, 48 h
# [1] = test system: 786-0 renal
# [2] = test system: A498 renal
# [3] = test system: ACHN renal
# [4] = test system: BT-549 breast
# [5] = test system: CAKI-1 renal
# [6] = test system: CCRF-CEM leukemia
# [7] = test system: COLO 205 colon
# [8] = test system: DU-145 prostate
# [9] = test system: EKVX NSCLC
# [10] = test system: HCC-2998 colon
# [11] = test system: HCT-15 colon
# [12] = test system: HOP-62 NSCLC
# [13] = test system: HOP-92 NSCLC
# [14] = test system: HS 578T breast
# [15] = test system: IGROV1 ovarian
# [16] = test system: LOX IMVI melanoma
# [17] = test system: MALME-3M melanoma
# [18] = test system: MDA-MB-231 breast
# [19] = test system: NCI-H226 lung
# [20] = test system: NCI-H23 lung
# [21] = test system: NCI-H522 lung
# [22] = test system: OVCAR-3 ovarian
# [23] = test system: OVCAR-4 ovarian
# [24] = test system: OVCAR-5 ovarian
# [25] = test system: OVCAR-8 ovarian
# [26] = test system: PC-3 prostate
# [27] = test system: RPMI-8226 leukemia
# [28] = test system: RXF 393 renal
# [29] = test system: SF-268 CNS
# [30] = test system: SF-295 CNS
# [31] = test system: SF-539 CNS
# [32] = test system: SK-MEL-2 melanoma
# [33] = test system: SK-MEL-28 melanoma
# [34] = test system: SK-OV-3 ovarian
# [35] = test system: SNB-19 CNS
# [36] = test system: SR leukemia
# [37] = test system: T-47D breast
# [38] = test system: TK-10 renal
# [39] = test system: U251 CNS
# [40] = test system: UACC-257 melanoma
# [41] = test system: UACC-62 melanoma
# [42] = test system: UO-31 renal
# [43] = test system: KM12 colon
# [44] = test system: SK-MEL-5 melanoma
structure (smiles),measurement,setting,value
CC(C)[Si](Oc1ccc(CC2N(C(=O)c3ccc([N+](=O)[O-])cc3)C(CCc3ccccc3)CC2(C)C=O)cc1)(C(C)C)C(C)C (configuration not stated),TGI,[1],> 100 µM
same,TGI,[2],> 100 µM
same,TGI,[3],> 100 µM
same,TGI,[4],> 100 µM
same,TGI,[5],> 100 µM
same,TGI,[6],> 100 µM
same,TGI,[7],> 100 µM
same,TGI,[8],> 100 µM
same,TGI,[9],> 100 µM
same,TGI,[10],> 100 µM
same,TGI,[11],> 100 µM
same,TGI,[12],31.5 µM
same,TGI,[13],82.8 µM
same,TGI,[14],> 100 µM
same,TGI,[15],> 100 µM
same,TGI,[16],> 100 µM
same,TGI,[17],> 100 µM
same,TGI,[18],95.5 µM
same,TGI,[19],98.2 µM
same,TGI,[20],> 100 µM
same,TGI,[21],> 100 µM
same,TGI,[22],> 100 µM
same,TGI,[23],> 100 µM
same,TGI,[24],> 100 µM
same,TGI,[25],42.5 µM
same,TGI,[26],> 100 µM
same,TGI,[27],> 100 µM
same,TGI,[28],28.2 µM
same,TGI,[29],54.8 µM
same,TGI,[30],> 100 µM
same,TGI,[31],23.2 µM
same,TGI,[32],> 100 µM
same,TGI,[33],> 100 µM
same,TGI,[34],> 100 µM
same,TGI,[35],59.4 µM
same,TGI,[36],> 100 µM
same,TGI,[37],> 100 µM
same,TGI,[38],> 100 µM
same,TGI,[39],> 100 µM
same,TGI,[40],> 100 µM
same,TGI,[41],> 100 µM
same,TGI,[42],> 100 µM
CC(=O)N1N=C(c2ccc(C)cc2)CC1c1cn(-c2ccccc2)nc1-c1cccc(Nc2ccnc3cc(Cl)ccc23)c1 (configuration not stated),GI50,[2],> 100 µM
same,TGI,[2],> 100 µM
same,GI50,[4],> 100 µM
same,TGI,[4],> 100 µM
same,GI50,[5],> 100 µM
same,TGI,[5],> 100 µM
same,GI50,[7],> 100 µM
same,TGI,[7],> 100 µM
same,GI50,[10],> 100 µM
same,TGI,[10],> 100 µM
same,GI50,[15],> 100 µM
same,TGI,[15],> 100 µM
same,GI50,[43],> 100 µM
same,TGI,[43],> 100 µM
same,GI50,[19],> 100 µM
same,TGI,[19],> 100 µM
same,GI50,[26],> 100 µM
same,TGI,[26],> 100 µM
same,GI50,[29],> 100 µM
same,TGI,[29],> 100 µM
same,GI50,[44],> 100 µM
same,TGI,[44],> 100 µM
same,GI50,[34],> 100 µM
same,TGI,[34],> 100 µM
same,GI50,[38],> 100 µM
same,TGI,[38],> 100 µM
same,GI50,[40],> 100 µM
same,TGI,[40],> 100 µM
same,GI50,[42],> 100 µM
same,TGI,[42],> 100 µM
